Experimental data: US20230148258A1, “SPERMIDINE-SUPPLEMENTED FOOD PRODUCTS” (KALIN HEALTH LLC, priority 2020, published 2023)

Columns and labels:
[1] = animal models; 10 minutes after; cited from earlier work
[2] = NOAEL (No Observed Adverse Effect Level), Til et al. 1997
Excerpt: Food and Drug Administration GRAS Notice No. 889 Spermidine-Rich Wheat Germ Extract, the entirety of which is incorporated herein by reference. […] Til et al., Food and Chemical Toxicology 1997, v. 35, p. 337-348.

[3] = Til et al., Food and Chemical Toxicology 1997; cited from earlier work

| Compound | fraction of amount that reached the lumen found in the portal vein [1] | NOAEL expressed for a 70 kg person [2] | NOAEL (No Observed Adverse Effect Level) [3] |
| --- | --- | --- | --- |
| NCCCCNCCCN [spermidine] | Approximately 70% | ~470 mg/day | 83 mg/kg body weight/day |
| NCCCNCCCCNCCCN [spermine] | Approximately 70% | ~106 mg/day | 1.52 mg/kg body weight/day |
